How the values were obtained:
[1] = 101 kPa, Liquid
[2] = xn = mol fraction of the nth substance listed; conditions: 101 kPa, Liquid, x1 = 1

CCOS(=O)(=O)[O-].CCn1cc[n+](C)c1 [1-ethyl-3-methylimidazolium ethyl sulfate]
[1]
Conditions	mass density [kg/m3]	viscosity [mPa·s]
278.15 K	1251.12	308
288.15 K	1244.13	166
298.15 K	1237.37	95
308.15 K	1230.61	62
318.15 K	1223.9	41
328.15 K	1217.23	30
338.15 K	1210.6	21
348.15 K	1204.01	17

CCn1cc[n+](C)c1.O=C([O-])C(F)(F)F [1-ethyl-3-methylimidazolium trifluoroacetate]
[1]
Conditions	mass density [kg/m3]	viscosity [mPa·s]
278.15 K	1306.89	78
288.15 K	1298.81	48
298.15 K	1290.8	32
308.15 K	1282.85	23
318.15 K	1274.95	17
328.15 K	1267.12	13
338.15 K	1259.35	10
348.15 K	1251.63	9

CCn1cc[n+](C)c1.O=S(=O)([O-])C(F)(F)F [1-ethyl-3-methylimidazolium trifluoromethanesulfonate]
[1]
Conditions	mass density [kg/m3]	viscosity [mPa·s]
278.15 K	1400.52	96
288.15 K	1392.04	61
298.15 K	1383.6	41
308.15 K	1375.22	29
318.15 K	1366.9	21
328.15 K	1358.63	16
338.15 K	1350.43	13
348.15 K	1342.3	11

O [water] + CCOS(=O)(=O)[O-].CCn1cc[n+](C)c1
[2]
Conditions	mass density [kg/m3]
278.15 K	999.99
308.15 K	994.06
328.15 K	985.71
338.15 K	980.56
348.15 K	974.84

O [water] + CCn1cc[n+](C)c1.O=C([O-])C(F)(F)F
[2]
Conditions	mass density [kg/m3]
278.15 K	999.99
308.15 K	994.06
328.15 K	985.71
338.15 K	980.56
348.15 K	974.84

O [water] + CCn1cc[n+](C)c1.O=S(=O)([O-])C(F)(F)F
[2]
Conditions	mass density [kg/m3]
278.15 K	999.99
308.15 K	994.06
328.15 K	985.71
338.15 K	980.56
348.15 K	974.84

— the NIST ThermoML archive (doi:10.1021/je0602824)
